For one experiment, the system named is elafin. Kind of experiment: Western blot detection of secreted elafin in culture supernatants. Type of experiment: cell-based, human. The source says: FIG. 3. Production of elafin detected by Western blot in the supernatant of different S. thermophilus strains. (A) At OD600 0.2 and 0.5 for strain TIL1536 (ΔhtrA::aphA3 ΔsepM::spec), TIL1551 (blp::shp-rgg1358-Pster1357-elafin-P32 cm ΔhtrA::aphA3 ΔywdF::spec) and TIL1552 (blp::rgg1358-Pster1357-elafin-P32 cm ΔhtrA::aphA3 ΔywdF::spec). (B) At OD600 1 and 2 for strain TIL1536, TIL1551 and TIL1552. (C) At OD600 0.2, 0.5 and 1 for strain TIL1567 (blp::rgg1358-Pster1357-luxAB-aphA3 ΔhtrA::aphA3 ΔywdF::spec ΔpptAB::erm). Purified elafin was used as a positive control and strain TIL1536 as negative control (elafin non-producing strain). Induction of the production of elafin with the addition of synthetic SHP in the culture medium is mentioned with: +SHP.
For the preparation of the samples, derivatives of strain CNRZ1066 were grown in CDM at 42° C. When necessary, induction was performed with the addition of SHP peptide (EGIIVIVVG, SEQ ID NO: 24) at a final concentration of 1 μM for strain TIL1552 and 0.5 µM for strain TIL1567 in the growth medium at OD600 of 0.2. When the cultures reached the desired OD600, 10 ml were centrifuged at 3200 g for 10 min at room temperature. […]
For the Western blot experiments, 10 μl of the samples were diluted in Laemmli Buffer (4×) and heated to 95° C. for 5 minutes. […] Detection was finally recorded using a Chemidoc (Biorad).

In another experiment the test system is SHP/Rgg1358 system. As to the kind of experiment: Maximum luciferase activity of strain TIL1566 with different synthetic SHPs. It is filed as cell-based, S. thermophilus. The conditions noted are these: strain TIL1566 in CDM, 37° C., synthetic peptide 1 μM; mean of three independent experiments. The procedure:
For the assessment of the maximum luciferase activity reached with the addition of different SHPs in the culture media of strain TIL1566 (blp::rgg1358-Pster1357-luxAB-aphA3 ΔpptAB::erm), cells were grown overday at 37° C. in CDM. These cultures were diluted to a final OD600 of 0.05 in 1 ml of CDM. Synthetic SHP peptides were added in the culture medium at a final concentration of 1 μM. 250 μl of these diluted cultures were transferred to the wells of a covered sterile white microplate with a transparent bottom. The cultures' OD600 and luminescence values were monitored at 37° C. every 10 minutes in an Infinite M200 spectroluminometer, as previously described (Fontaine et al., J. Bacteriol. 192:1444-1454, 2010). The maximum of luminescence was recovered from each kinetic. The maximum activity was reported in Relative Luminescent Units divided by the OD600 (RLU/OD600) and measured as the mean of three independent experiments.
In order to assess their efficiency, we used their synthetic mature form to record the maximum luciferase activity of strain TIL1566 (blp::rgg1358-Pster1357-luxAB ΔpptAB::erm) in CDM and compared it to the one obtained with SHP1358. We chose the mature SHPs of strain CNRZ1066 similar to the mature SHP1358 (EGIIVIVVG, SEQ ID NO: 24): the SHP associated to Rgg STR_RS07375 (EGIIVILVG, SEQ ID NO: 25), the SHP associated to Rgg STR_RS09145 (EGIIVIGVG, SEQ ID NO: 26) and the SHP associated to Rgg STR_RS04530 (ESIIVIAVG, SEQ ID NO: 27). The most efficient peptide was ESIIVIAVG (SEQ ID NO: 27) with a maximum relative luciferase activity that reached 95% of the one obtained with SHP1358. The two other peptides were less efficient with percentage of 86% with EGIIVILVG (SEQ ID NO: 25) and only 27% with EGIIVIGVG (SEQ ID NO: 26).

For “EGIIVIVVG (listed as Streptococcus thermophilus) [SHP1358, mature small hydrophobic peptide of S. thermophilus LMD-9, inducer of Rgg1358]”, the “elafin level in induced culture versus uninduced culture” value in the experiment on elafin (strain 1552, SHP 1 μM added at OD600 0.2, sampled at OD600 0.5) is reported as “much greater”. In the experiment on elafin (strain TIL1567 (ΔpptAB), SHP 0.5 μM added at OD600 0.2, detected at OD600 0.5 and 1), the “production of elafin in the extracellular medium on addition of SHP” value is “restored”. For “ESIIVIAVG (listed as Streptococcus thermophilus)”, the “maximum relative luciferase activity, percentage of the one obtained with SHP1358” value in the experiment on SHP/Rgg1358 system came out at 95%. On the same count and under the same terms, with “EGIIVIGVG (listed as Streptococcus thermophilus)” the figure was 27%; with “EGIIVILVG (listed as Streptococcus thermophilus)”, 86%.

The values above are taken from US20240392305A1, “GENETICALLY MODIFIED BACTERIA AND USES THEREOF FOR THE INDUCIBLE EXPRESSION OF A NUCLEIC SEQUENCE OF INTEREST” (Institut National de Recherche Pour l'Agriculture, …, priority 2021, published 2024).
